Results as given in patent publication US7214668B2, “Phosphonic acid based prodrugs of PMEA and its analogues” (Metabasis Therapeutics, Inc., priority 2002, dated 2007).
“And” between values parts separate entries of the source, which are not always exact repeats. Identical values can stand only once. Like-named read-outs stand apart in the source and are kept apart here.

Tests used:
human liver microsomes [1] = test: Kinetics of activation of Compound 4 to PMEA by human liver microsomes; format: in vitro ADME; conditions: 2 mg/mL human liver microsomes, 10 minutes, 37° C.
Method: The kinetics of activation of Compound 4 by the microsomal fraction of human liver were determined.
Human liver microsomes were purchased from In Vitro Technologies (IVT). Lot 1011 was prepared from a pool of 10 male donors with documented CYP3A4 activity (testosterone 6β-hydroxylation rate of 5.7 nmol/mg/min; IVT). […] Following a 2-minute preincubation at 37° C., reaction mixtures containing 100 mM KH2PO4, 2 mg/mL human liver microsomes, and 0, 30, 60, 100, 200 and 400 μM Compound 4 were started by addition of NADPH to 2 mM. The reaction was carried out for 10 minutes in an Eppendorf Thermomixer 5436 at 37° C., speed 6. […] Reactions were terminated by the addition of 1.5 volumes of methanol and extracts were pelleted at 14,000 rpm in an Eppendorf microfuge for 20 minutes. The supernatants (200 μl) were evaporated under vacuum and heat to dryness before resuspending in 80 μL buffer A (see below). Spiked standards of 9-[2-(phosophonomethoxy)ethyl]adenine, (PMEA, lot 980397, Metabasis Therapeutics) were prepared in the reaction mixture, and quenched and processed in an identical fashion. The ion-pairing buffer (Buffer A) consisted of 10 mM ammonium phosphate and 2.5 mM octyltriethylammonium phosphate, pH 5.5. After resuspension, samples were analyzed for PMEA by reverse phase HPLC. […]

human liver microsomes [2] = test: In vitro activation of enantiomers in human liver microsomes (glutathione by-product capture); format: in vitro ADME; conditions: 2 mg/mL human liver microsomes, glutathione adduct of by-product quantified
Method: The two enantiomers were compared for activation in human liver microsomes.
Human liver microsomes were purchased from In Vitro Technologies (IVT1032). […] The reactions were initiated by addition of NADPH following a 2-minute preincubation. Reactions were quenched with 60% methanol at 0, 2.5, 5, and 7.5 minutes. L-Glutamyl-L-(S-(3-oxo-3-(3-chlorophenyl)propyl)cysteinylglycine, a glutathione adduct of the by-product of prodrug activation, 3-Cl-phenyl vinyl ketone, was quantified following extraction of the reaction with 1.5 volumes of methanol. The extracted samples were centrifuged at 14,000 rpm in an Eppendorf microfuge and the supernatant analyzed by HPLC for L-Glutamyl-L-(S-(3-oxo-3-(3-chlorophenyl)propyl)cysteinylglycine content. Spiked L-Glutamyl-L-(S-(3-oxo-3-(3-chlorophenyl)propyl)cysteinylglycine (lot 20000127) standards (1–30 μM) were prepared in 2 mg/ml microsomes under reaction conditions and then quenched and processed in an identical fashion to unknown samples. For HPLC analysis, the loading mobile phase buffer (Buffer A) consisted of a 9:1 ratio (v/v) of 20 mM potassium phosphate, pH 6.2 and acetonitrile. Extract (100 uL) was injected onto a Beckman Ultrasphere ODS column (4.6×250 […], part#235329). […] The elution of L-Glutamyl-L-(S-(3-oxo-3-(3-chlorophenyl)propyl)cysteinylglycine (retention time 10.4 minutes) was monitored at 245 nm.

[3] = Pharmacokinetics and oral bioavailability in beagle dog; format: in vivo
Method: Following an i.v. bolus and oral administration of 8 and 40 mg/kg (prodrug equivalent dose), respectively, of Compound 4 in PEG-400 to male beagle dogs (n=4), blood samples were collected at the following times: 5, 15, 30, 45 min and 1, 2, 4, 6, 8, 12, and 24 hrs post each dosing occasion. In addition, urine was collected over the following intervals: 0–12, 12–24, 24–48, and 48–72 hrs. Intact Compound 4 and PMEA were measured in the plasma and urine samples using an LC-MS/MS method. PK parameters were determined by non-compartmental analysis.

[4] = system: freshly isolated rat hepatocytes; test: Hepatotoxicity parameters in isolated normal and dexamethasone-induced rat hepatocytes
Method: Normal fed Sprague-Dawley rats weighing 280–310 g were administered dexamethasone intraperitoneally at 50 mg/kg once a day for four days. Dexamethasone was purchased from Sigma (lot#119H1328) and formulated as a suspension in corn oil (Sigma lot#107H1649) at 50 mg/mL. On the fifth day rats were used for hepatocyte isolations. […] Effects on glutathione levels were assessed by the DTNB (Ellman's reagent) method and viability was determined by the trypan blue exclusion assay and hepatic enzyme leakage assays (LDH, AST). […] Both assays were adapted from the protocol insert for a test tube assay to a microtiter plate assay.

[5] = Tissue distribution of PMEA equivalents after oral tritiated Compound 4 and bis POM PMEA in rats
Method: Total tritium counts were analyzed in solubilized samples of liver organ, kidney, plasma, urine, red blood cells, small intestine, as well as small intestine contents and feces obtained at various time points over 24 hours. Liver organ specificity was assessed by comparison of the temporal profiles of total tritium in liver organ versus kidney, small intestine, plasma, and red blood cells. Metabolite profiles in perchloric acid extracts of liver organ, kidney, small intestine, feces and urine were analyzed by HPLC.

[6] = 40 mg/kg p.o. vs 8 mg/kg i.v., dog
[7] = 1 mM Compound 4, normal rat hepatocytes

With Nc1ncnc2c1ncn2CCOCP1(=O)OCCC(c2cccc(Cl)c2)O1 (racemic) [Compound 4] the Km (human liver microsomes [1]) was 11 µM, the “Activation (25 μM)” value (human liver microsomes [2]; 25 μM) was 38 pmol/mg/min and the “Activation (250 μM)” value (human liver microsomes [2]; 250 μM) was 283 pmol/mg/min. The “Tolerability (signs of ill health or mortality)” value ([3]; 8 mg/kg i.v. bolus and 40 mg/kg oral in PEG-400, male beagle dogs) was “well tolerated”, the “Mean residence time (MRTiv)” value ([3]; 8 mg/kg i.v. bolus, dog) was 1.0 h and the Plasma clearance ([3]; 8 mg/kg i.v. bolus, dog) was 29.5 mL/min/kg. The “Volume of distribution (Vss)” value ([3]; 8 mg/kg i.v. bolus, dog) was 1.70 L/kg, the “Mean terminal elimination half-life t1/2 of intact prodrug, i.v.” value ([3]; 8 mg/kg i.v. bolus, dog plasma) was 0.8 h and the “i.v. dose excreted in the urine as PMEA” value ([3]; 8 mg/kg i.v., dog) was 2%. The “i.v. dose excreted in the urine as intact Compound 4” value ([3]; 8 mg/kg i.v., dog) was “approximately 30%”, the “OBAV based on dose normalized oral-to-i.v. AUC ratios” value [3, 6] was 112% and the “OBAV based on urinary excretion of Compound 4” value [3, 6] was 82%. For the same compound, the “Half-life of PMEA after oral dosing of the prodrug” value ([3]; 40 mg/kg p.o., dog) was 5.4 h, the “Mean peak plasma concentration (Cmax) of intact prodrug, oral” value ([3]; 40 mg/kg p.o., dog) was 10200 ng/mL and the “Mean plasma Cmax of PMEA following oral administration” value ([3]; 40 mg/kg p.o., dog) was 240 ng/mL. The “Terminal t1/2 after p.o. dosing” value ([3]; 40 mg/kg p.o., dog) was 1.0 h, the “Tmax of PMEA following oral administration” value ([3]; 40 mg/kg p.o., dog) was 1.4 h and the “Tmax of intact prodrug, oral” value ([3]; 40 mg/kg p.o., dog) was 0.8 h and 0.81 h. The “p.o. dose excreted in the urine as PMEA” value ([3]; 40 mg/kg p.o., dog) was 1.7%, the “p.o. dose excreted in the urine as intact prodrug” value ([3]; 40 mg/kg p.o., dog) was 40% and the Cmax ([3]; 40 mg/kg p.o., dog, read-out: Mean peak plasma concentration (Cmax) of intact prodrug, oral) was ~24 µM. The Cmax ([3]; 40 mg/kg p.o., dog, read-out: Mean plasma Cmax of PMEA following oral administration) was ~0.88 µM, the “% F (orally bioavailable)” value ([3]; beagle dog, conclusion) was ~100% and the “Fold reduction of systemic PMEA exposure (dose-normalized plasma AUC) versus bis POM PMEA literature” value ([3]; dog) was 18.8 fold. The “PMEA AUC (dose-normalized plasma)” value ([3]; dog, after Compound 4) was 0.58, the “Viability or hepatic enzyme leakage following glutathione depletion” value ([4]; 250 μM and 1 mM, hepatocytes from dexamethasone pre-treated rats) was “no significant changes” and the “Glutathione reduction, 250 μM” value ([4]; 250 μM, hepatocytes from dexamethasone pre-treated rats, 2-hour incubation) was 50%. The “Glutathione levels, normal hepatocytes” value [4, 7] was “no significant decrease”, the “Viability or hepatic enzyme leakage, normal hepatocytes” value [4, 7] was “no significant changes” and the “Glutathione reduction, 1 mM” value ([4]; 1 mM, hepatocytes from dexamethasone pre-treated rats, 2-hour incubation) was > 95%. The “Compound 4/bisPOM PMEA (fold difference), Kidney” value ([5]; 30 mg/kg PMEA equivalents p.o.) was 0.26 fold, the “Compound 4/bisPOM PMEA (fold difference), Liver organ” value ([5]; 30 mg/kg PMEA equivalents p.o.) was 3.1 fold and 3.11 fold and the “Compound 4/bisPOM PMEA (fold difference), Small Intestine” value ([5]; 30 mg/kg PMEA equivalents p.o.) was 0.04 fold. The “Fold decrease of exposure of PMEA equivalents in kidney relative to bis POM PMEA” value ([5]; 30 mg/kg PMEA equivalents p.o.) was 3.8 fold, the “Fold decrease of exposure of PMEA equivalents in small intestine relative to bis POM PMEA” value ([5]; 30 mg/kg PMEA equivalents p.o.) was 25 fold and the “Dose found as intact prodrug in feces” value ([5]; after 24 hours, p.o.) was ~60%.
